One assay deals with human plasma kallikrein (Homo sapiens, UniProt P03952). Description: Kallikrein inhibition assay (FLINT) utilizing a quenched AMC peptide substrate Z-Gly-Pro-Arg-AMC. The format is biochemical. The conditions noted are these: kinetic (KIN) reads, read-out: Kallikrein KIN Inh IC50. The text has this:
Biological Example 2: Kallikrein Inhibition Assay Utilizing a Quenched AMC Peptide Substrate A fluorescence intensity (FLINT) based assay was used to monitor inhibition of human plasma kallikrein. The peptide substrate, Z-Gly-Pro-Arg-AMC (Purchased from Bachem; Catalog #I-1150) was chosen based on its relatively low KM for kallikrein which enables running the assay at lower substrate concentrations to control background fluorescence.
The Kallikrein FLINT assay was used with the following Z-Gly-Pro-Arg-AMC assay buffer: 50 mM Tris, pH 7.5, 100 mM NaCl, 5 mM CaCl2, 0.1 mg/mL BSA, 0.03% CHAPS. Assay buffer was prepared by mixing all ingredients fresh. 2× Z-Gly-Pro-Arg-AMC peptide substrate was prepared by diluting 10 mM stock into 1× assay buffer for a 100 μM working concentration (50 μM final concentration). The 2× kallikrein stock solution was prepared by diluting 14.76 μM stock in 1× assay buffer for a 4 nM working stock solution (2 nM final concentration).
Test compound(s) were run in an 11-point, 3-fold serial dilution with a final top compound concentration of 1 μM. Final DMSO in assay was 2%. Plasma kallikrein was pre-incubated for 30-minute with compound and then 50 μM substrate was added to initiate the reaction. The assay was run with kinetic (KIN) reads at 5 min intervals over 30 minutes. The time course was linear using 2 nM kallikrein greater than 30 minutes. More specifically, the assay was run as follows: • 100 nL of 0.1 mM test compound was dispensed into black 384-well non-binding Greiner BioOne 784900 plate for 1 μM final concentration; • 5 μL of 1× assay buffer was dispensed to columns 24 (low control) and 5 μL 2× human kallikrein enzyme solution was dispensed to columns 1-23 (column 23 high control); • the plate was centrifuged with a “cover” plate at 500 rpm for 1 min • the plate was pre-incubated for 30 minutes at room temperature with plate covered; • 5 μL of 2× Z-Gly-Pro-Arg-AMC peptide substrate was dispensed into the entire plate, columns 1-24; • the plate was centrifuged with a “cover” plate at 500 rpm for 1 min; • the plate was read monitoring fluorescence intensity on the BMG PHERAStar at room temperature, using fluorescence module 340 nm/440 nm.
(§1) Percent inhibition (IC50) curves were generated per compound tested, and data was analyzed using a 4-parameter logistic fit using GeneData Screener. The relative fluorescence unit (RFU) values were normalized to percent inhibition using the following equation:
% inhibition=((HC−LC)−(compound−LC)/(HC−LC))*100 where LC—low control=mean signal of […] or 100% inhibition of human kallikrein enzyme; HC—high control=mean signal of […]+Z-Gly-Pro-Arg-AMC peptide substrate with DMSO only.
(§2) An 11-point dose response curve for the test compound(s) was generated using GENDATA to determine IC50 value based on the following equation:
Y=Bottom+(Top−Bottom)/(1+10^((log IC50−X)*HillSlope)) where Y is the % inhibition in the presence of X inhibitor concentration, Top=high control=mean signal of human kallikrein enzyme+Z-Gly-Pro-Arg-AMC peptide substrate with DMSO only; Bottom=low control−mean signal of no human kallikrein enzyme or 100% inhibition of human kallikrein enzyme; HillSlope−Hill coefficient; and IC50=concentration of compound with 50% inhibition in relation to top/high control.

For the next assay, the target named is Factor XIa (Homo sapiens, UniProt P03951). Description: Factor XIa inhibition assay (FLINT) utilizing a fluorophore-quencher pair peptide substrate 5Fam-[…]-K5Tamra. It is filed as biochemical. To be noted: kinetic (KIN) reads; values in nM; read-out: FXIa KIN Inh IC50.
Chain of Factor XIa (P03951 388-625 limits assumed): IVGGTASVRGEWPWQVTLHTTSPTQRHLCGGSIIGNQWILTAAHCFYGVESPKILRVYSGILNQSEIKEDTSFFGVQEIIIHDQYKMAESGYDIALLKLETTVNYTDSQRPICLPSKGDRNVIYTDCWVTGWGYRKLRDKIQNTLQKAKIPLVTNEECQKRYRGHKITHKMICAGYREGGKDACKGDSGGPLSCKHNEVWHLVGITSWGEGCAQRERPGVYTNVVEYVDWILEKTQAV
Chain of Factor XIa (P03951 19-387 partner limits assumed): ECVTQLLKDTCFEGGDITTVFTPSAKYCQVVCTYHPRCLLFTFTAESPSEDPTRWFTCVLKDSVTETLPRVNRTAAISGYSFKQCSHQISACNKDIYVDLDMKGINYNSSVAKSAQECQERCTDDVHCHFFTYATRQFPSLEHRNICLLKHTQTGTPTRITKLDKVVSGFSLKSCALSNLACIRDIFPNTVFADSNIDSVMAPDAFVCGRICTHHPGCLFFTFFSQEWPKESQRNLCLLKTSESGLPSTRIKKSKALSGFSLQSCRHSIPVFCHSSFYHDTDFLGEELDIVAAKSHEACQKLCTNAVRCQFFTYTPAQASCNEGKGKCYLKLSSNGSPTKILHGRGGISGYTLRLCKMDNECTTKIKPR
Text: Biological Example 1: Factor XIa Inhibition Assay Utilizing a Fluorophore-Quencher Pair Peptide Substrate A fluorescence intensity (FLINT) based assay was used to monitor inhibition of Factor XIa. The peptide substrate, 5Fam-[…]-K5Tamra (purchased from New England Peptide) was chosen based on the FXI sequence. Conversion of zymogen FXI to its activated form, FXIa, occurs by proteolytic cleavage by […] at two sites, Arg146 and Arg180. The custom peptide used in this assay was based on the Arg146 cleavage site of FXI. The peptide substrate was designed with a fluorophore-quencher pair, where the fluorescence is quenched until FXIa cleaves the 8-mer peptide after the Arg residue.
The Factor XIa FLINT assay was used with the following 5Fam-[…]-K5Tamra assay buffer: 50 mM Tris, pH 7.5, 100 mM NaCl, 5 mM CaCl2, 0.1 mg/mL BSA, 0.03% CHAPS. Assay buffer was prepared by mixing all ingredients fresh. 5Fam-[…]-K5Tamra peptide substrate was first prepared at 10 mM in 100% DMSO, then diluted to 3 mM in 100% DMSO. Assay buffer was then added directly to the 3 mM stock of substrate to prepare the 30 μM 2× working concentration (15 μM final concentration). The 2× Factor XIa stock solution was prepared by diluting 6.562 μM stock in 1× assay buffer for a […].
Test compound(s) were run in an 11-point, 3-fold serial dilution with a final top compound concentration of 100 nM. Final DMSO in assay was 2%. FXIa was preincubated with compound for 30-minutes and then substrate was added to initiate the reaction. The assay was run with kinetic (KIN) reads at 5 min intervals over 30 minutes. […] More specifically, the assay was run as follows: • 100 nL of 0.01 mM test compound was dispensed into black 384-well non-binding Greiner BioOne 784900 plate for 0.1 μM final concentration; • 5 μL of 1× assay buffer was dispensed to column 24 (low control) and 5 μL 2× Factor XIa solution was dispensed to columns 1-23 (column 23 high control); • the plate was centrifuged with a “cover” plate at 500 rpm for 1 min • the plate was pre-incubated for 30 minutes at room temperature with plate covered; • 5 μL of 2×5Fam-[…]-K5Tamra peptide substrate was dispensed into the entire plate, columns 1-24; • the plate was centrifuged with a “cover” plate at 500 rpm for 1 min; • the plate was read monitoring fluorescence intensity on the BMG PHERAStar at room temperature, using fluorescence module 485 nm/520 nm.
as §1
% inhibition=((HC−LC)−(compound−LC)/(HC−LC))*100 where LC−low control=mean signal of no Factor XIa or 100% inhibition of Factor XIa; HC−high control=mean signal of Factor XIa+5Fam-[…]-K5Tamra peptide substrate with DMSO only.
as §2
Y=Bottom+(Top−Bottom)/(1+10^((log IC50−X)*HillSlope)) where Y is the % inhibition in the presence of X inhibitor concentration, Top=high control=mean signal of Factor XIa+5Fam-[…]-K5Tamra peptide substrate with DMSO only; Bottom=low control−mean signal of no Factor XIa or 100% inhibition of Factor XIa; HillSlope−Hill coefficient; and IC50=concentration of compound with 50% inhibition in relation to top/high control.

A word on the IC50: it is the point on the concentration scale where inhibition reaches its midpoint.

Where two headings read alike, the source gives them in different places.

Chain of human plasma kallikrein (P03952 391-638 limits assumed): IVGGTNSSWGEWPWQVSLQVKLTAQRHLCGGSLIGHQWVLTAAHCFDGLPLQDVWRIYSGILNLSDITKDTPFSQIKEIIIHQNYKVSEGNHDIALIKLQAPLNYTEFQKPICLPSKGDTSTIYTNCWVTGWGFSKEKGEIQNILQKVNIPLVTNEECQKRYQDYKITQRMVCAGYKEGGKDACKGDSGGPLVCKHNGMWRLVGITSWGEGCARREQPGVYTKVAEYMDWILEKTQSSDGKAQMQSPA
Chain of human plasma kallikrein (P03952 20-390 partner limits assumed): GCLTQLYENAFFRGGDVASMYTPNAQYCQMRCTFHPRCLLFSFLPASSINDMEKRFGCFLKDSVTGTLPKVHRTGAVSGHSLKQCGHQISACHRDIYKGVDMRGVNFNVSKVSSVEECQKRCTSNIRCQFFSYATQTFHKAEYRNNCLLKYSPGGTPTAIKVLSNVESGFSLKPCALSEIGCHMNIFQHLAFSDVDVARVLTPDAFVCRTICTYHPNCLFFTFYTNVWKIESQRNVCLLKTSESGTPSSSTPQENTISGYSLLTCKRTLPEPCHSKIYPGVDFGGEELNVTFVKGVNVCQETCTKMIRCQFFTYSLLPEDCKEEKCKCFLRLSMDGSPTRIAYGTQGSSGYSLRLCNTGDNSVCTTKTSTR

Take `CNC(=O)c1ccc(-c2cnc([C@@H]3C[C@H](C)c4cc(-c5c(-n6cnnn6)ccc(Cl)c5F)cc(=O)n43)[nH]2)cn1` [Example 12, 5-(2-((1S,3S)-7-(3-Chloro-2-fluoro-6-(1H-tetrazol-1-yl)phenyl)-1-methyl-5-oxo-1,2,3,5-tetrahydroindolizin-3-yl)-1H-imidazol-5-yl)-N-methylpicolinamide]: the figures for the IC50 at human plasma kallikrein (values in nM) and at Factor XIa were 205 nM and 63.7 nM, respectively. For `C[C@@H]1C[C@H](c2ncc(-c3ccc4nn(C)cc4c3)[nH]2)n2c1cc(-c1c(-n3cnnn3)ccc(Cl)c1F)cc2=O` (stereo in doubt) [Example 47, (1*R,3*R)-7-(3-Chloro-2-fluoro-6-(1H-tetrazol-1-yl)phenyl)-1-methyl-3-(5-(2-methyl-2H-indazol-5-yl)-1H-imidazol-2-yl)-2,3-dihydroindolizin-5(1H)-one], the IC50 on human plasma kallikrein (values in nM) was found to be 21.7 nM; at Factor XIa, 23.7 nM. The matching figures for `C[C@H]1C[C@@H](c2ncc(-c3ccnn3C)[nH]2)n2c1nc(-c1c(-n3cnnn3)ccc(Cl)c1F)cc2=O` (stereo in doubt) [Example 144, (6S*,8S*)-2-(3-Chloro-2-fluoro-6-(1H-tetrazol-1-yl)phenyl)-8-methyl-6-(5-(1-methyl-1H-pyrazol-5-yl)-1H-imidazol-2-yl)-7,8-dihydropyrrolo[1,2-a]pyrimidin-4(6H)-one]: 246 nM and 62.1 nM. For `CC(O)c1nccc(-c2cnc([C@H]3CC4(CC4)c4cc(-c5c(-n6cnnn6)ccc(Cl)c5F)cc(=O)n43)[nH]2)c1F` (single isomer, unassigned) [Example 6, (3′R)-7′-(3-Chloro-2-fluoro-6-(1H-tetrazol-1-yl)phenyl)-3′-(5-(3-fluoro-2-(1-hydroxyethyl)pyridin-4-yl)-1H-imidazol-2-yl)-2′,3′-dihydro-5′H-spiro[cyclopropane-1,1′-indolizin]-5′-one], in that order: 72.8 nM and 17 nM. For `CC1C[C@@H](c2nc(-c3cnc(N)cn3)c[nH]2)n2c1nc(-c1c(-n3cc(C(F)(F)F)nn3)ccc(Cl)c1F)cc2=O` (stereo partly drawn) [Example 80, (6S)-6-(4-(5-aminopyrazin-2-yl)-1H-imidazol-2-yl)-2-(3-chloro-2-fluoro-6-(4-(trifluoromethyl)-1H-1,2,3-triazol-1-yl)phenyl)-8-methyl-7,8-dihydropyrrolo[1,2-a]pyrimidin-4(6H)-one], in that order: approximately 236 nM and 4.4 nM. As for `C[C@H]1CC(c2nc(F)c(-c3ccc(N)nc3)[nH]2)n2c1cc(-c1c(-n3cnnn3)ccc(Cl)c1F)cc2=O` (stereo in doubt) [Example 40, (1*S,3*S)-3-(5-(6-Aminopyridin-3-yl)-4-fluoro-1H-imidazol-2-yl)-7-(3-chloro-2-fluoro-6-(1H-tetrazol-1-yl)phenyl)-1-methyl-2,3-dihydroindolizin-5(1H)-one], the IC50 on human plasma kallikrein (unit μM) came out at 6400 nM; at Factor XIa, 286 nM. In the case of `Cc1nc(N)cnc1-c1cnc([C@H]2CC(C)c3nc(-c4c(-n5cnnn5)ccc(Cl)c4F)cc(=O)n32)[nH]1` (stereo partly drawn) [Example 96, (6R)-6-(5-(5-Amino-3-methylpyrazin-2-yl)-1H-imidazol-2-yl)-2-(3-chloro-2-fluoro-6-(1H-tetrazol-1-yl)phenyl)-8-methyl-7,8-dihydropyrrolo[1,2-a]pyrimidin-4(6H)-one], the results for the IC50 at human plasma kallikrein (unit μM) and at Factor XIa were more than 1000 nM and more than 100 nM, respectively. On to `C[C@H]1C[C@@H](c2ncc(-c3ncc(N)nc3F)[nH]2)n2c1nc(-c1c(-n3cnnn3)ccc(Cl)c1F)cc2=O` (single isomer, unassigned) [Example 89, (6*S,8S)-6-(5-(5-Amino-3-fluoropyrazin-2-yl)-1H-imidazol-2-yl)-2-(3-chloro-2-fluoro-6-(1H-tetrazol-1-yl)phenyl)-8-methyl-7,8-dihydropyrrolo[1,2-a]pyrimidin-4(6H)-one], for which the IC50 on human plasma kallikrein (values in nM) is approximately 45.9 nM; at Factor XIa it was 5.1 nM. As for `C[C@H]1C[C@@H](c2ncc(-c3ccc(N)nc3Cl)[nH]2)n2c1cc(-c1c(-n3cnnn3)ccc(Cl)c1F)cc2=O` [Example 59, (1S,3S)-3-(5-(6-Amino-2-chloropyridin-3-yl)-1H-imidazol-2-yl)-7-(3-chloro-2-fluoro-6-(1H-tetrazol-1-yl)phenyl)-1-methyl-2,3-dihydroindolizin-5(1H)-one], the IC50 on human plasma kallikrein (values in nM) worked out at 11.6 nM. For the compound `C[C@H]1C[C@@H](c2ncc(-c3ccc(N)nc3Cl)[nH]2)n2c1cc(-c1c(-n3cnnn3)ccc(Cl)c1F)cc2=O` (relative stereo) [Example 57, (1*S,3*S)-3-(5-(6-Amino-2-chloropyridin-3-yl)-1H-imidazol-2-yl)-7-(3-chloro-2-fluoro-6-(1H-tetrazol-1-yl)phenyl)-1-methyl-2,3-dihydroindolizin-5(1H)-one], the IC50 at human plasma kallikrein (unit μM) worked out at 3400 nM. As to `C[C@H]1CC(c2ncc(-c3ccnc(CN)c3)[nH]2)n2c1cc(-c1c(-n3cnnn3)ccc(Cl)c1F)cc2=O` (stereo in doubt) [Example 39, (1*S,3*S)-3-(5-(2-(Aminomethyl)pyridin-4-yl)-1H-imidazol-2-yl)-7-(3-chloro-2-fluoro-6-(1H-tetrazol-1-yl)phenyl)-1-methyl-2,3-dihydroindolizin-5(1H)-one], the IC50 at human plasma kallikrein (unit μM) is more than 10000 nM.

As for `O=c1cc(-c2c(-n3cnnn3)ccc(Cl)c2F)nc2n1C(c1ncc(-c3ccnc(C4(O)CC4)c3F)[nH]1)CC21CC1` (single isomer, unassigned) [Example 75, (R*)-2′-(3-Chloro-2-fluoro-6-(1H-tetrazol-1-yl)phenyl)-6′-(5-(3-fluoro-2-(1-hydroxycyclopropyl)pyridin-4-yl)-1H-imidazol-2-yl)-6′,7′-dihydro-4′H-spiro[cyclopropane-1,8′-pyrrolo[1,2-a]pyrimidin]-4′-one], on human plasma kallikrein (values in nM), the IC50 came to 97.6 nM.
